Reference: patent publication US9578878B2, “Antimicrobial efficacy of an oregano oil and caprylic acid blend” (Kemin Industries, Inc., priority 2014, dated 2017)

How the values were obtained:
A. brasiliensis = experiment: Poison agar assay; type: cell-based, Aspergillus brasiliensis
Description: (§1) Microorganisms Escherichia coli (ATCC #8739), Streptococcus sanguinis (ATCC #BAA-1455), Salmonella enteria subsp. enterica (ex Kauffmann and Edwards) Le Minor and Popoff serovar Typhimurium (ATCC #14028), Staphylococcus aureus (ATCC #6538), Pseudomonas aeruginosa (ATCC #9027), and Candida albicans (ATCC #10231) were obtained from a −80° C. internal stock culture. Aspergillus brasiliensis (ATCC #16404) was obtained from an internal stock solution culture stored at 4° C. E. coli, S. enterica S. aureus, and P. aeruginosa were grown in tryptic soy broth (TSB) and incubated at 37° C. for 24 h. S. sanguinis was grown in brain heart infusion broth (BHI). A. brasiliensis was plated on Sabourand dextrose agar (SDA) and incubated at 25° C. for 5-7 days. C. albicans was grown in Sabourand dextrose broth (SDB) and incubated at 25° C. for 48 h.
(§2) A. brasiliensis was harvested by adding 18 mL sterile saline to the plate and agitating the mold from the agar with a sterile inoculating loop. The inoculum was collected upon agitation. All suspended microbes were diluted with the same type of broth media used to grow each organism until an inoculum in the range of 10^6 CFU/mL was achieved. The inoculum concentration was determined by plate count method. Each strain was identified by plating on the appropriate growth media, E. coli, S. aureus, and P. aeruginosa on tryptic soy agar (Bacto, BD Sciences, Manassas, Va.) and C. albicans and A. brasiliensis on Sabrouand dextrose agar, to ensure there was no contamination of the inoculum.
A poison agar assay was completed for A. brasiliensis. Potato dextrose agar was used as the plated medium. Inocula at 10^5 cfu/ml were prepared and counted using a Petroff-Hausser counting chamber. Each treatment was added directly into the control without DMSO and Tween 80 as used in the previous experiments. The diameter of no growth around a 6 mm blank disk after incubation at 25° C. for 72 hrs was compared to the untreated control.

Salmonella enterica = experiment: Microtiter assay, MIC to inhibit 90% growth; type: cell-based; settings: 24 hours, n = 3
Description: (§3) For assays to find minimum inhibitory concentrations, all treatments were diluted in 10% DMSO and 0.5% Tween 80 to stabilize the samples.
as §1, §2
(§4) Microtiter Assay. A microtiter assay was completed E. coli, S. aureus, P. aeruginosa, S. enteria, S. sanguinis, and C. albicans. Briefly, 10^6 cfu/ml preparations of each organism were made and enumerated using a Petroff-Hausser counting chamber. A 100 μl aliquot of the inoculums was dispensed into microtiter plate wells and a 100 μl aliquot of treatment was dispensed into the same wells. Two separate set of wells were prepared as positive and negative controls, with the positive wells containing 100 μl test organism in growth media and 100 μl sterile phosphate buffer and with the negative control wells containing 100 μl of the same growth media and 100 μl sterile phosphate buffer. The plates were incubated overnight at the appropriate temperature for each organism. A plate reader was used to track the kinetic growth curve using 405 nm and […]. The last time point at 24 hours was averaged and used to determine MIC90. Each treatment was conducted in triplicate wells.

[1] = test system: Candida albicans (ATCC #10231); experiment: Microtiter assay, MIC to inhibit 90% growth; type: cell-based; settings: 24 hours, n = 3
Description: as §3, §1, §2, §4

[2] = test system: Streptococcus sanguinis (ATCC #BAA-1455); experiment: Microtiter assay, MIC to inhibit 90% growth; type: cell-based; settings: 24 hours, n = 3
Description: as §3, §1, §2, §4

[3] = test system: Escherichia coli (ATCC #8739); experiment: Microtiter assay, MIC to inhibit 90% growth; type: cell-based; settings: 24 hours, n = 3
Description: as §3, §1, §2, §4

[4] = test system: Staphylococcus aureus (ATCC #6538); experiment: Microtiter assay, MIC to inhibit 90% growth; type: cell-based; settings: 24 hours, n = 3
Description: as §3, §1, §2, §4

[5] = test system: Pseudomonas aeruginosa (ATCC #9027); experiment: Microtiter assay, MIC to inhibit 90% growth; type: cell-based; settings: 24 hours, n = 3
Description: as §3, §1, §2, §4

## CCCCCCCC(=O)O [Caprylic Acid, octanoic acid]
A. brasiliensis; 0.045% in agar
  % Inhibition from Control: 34.60%
  Diameter of Growth: 5.00 mm
A. brasiliensis; 0.090% in agar
  % Inhibition from Control: 100.00%
  Diameter of Growth: 0.00 mm
A. brasiliensis; 0.270% in agar
  % Inhibition from Control: 100.00%
  Diameter of Growth: 0.00 mm
A. brasiliensis; potato dextrose agar, 25° C., 72 hrs
  MIC90 in the poison agar assay: 0.09%
Salmonella enterica
  Minimum Inhibitory Concentration (MIC) to inhibit 90% growth, S. enterica: 0.90%
[1]
  Minimum Inhibitory Concentration (MIC) to inhibit 90% growth, C. albicans: 0.09%
[2]
  Minimum Inhibitory Concentration (MIC) to inhibit 90% growth, S. sanguinis: 0.09%
[3]
  Minimum Inhibitory Concentration (MIC) to inhibit 90% growth, E. coli: 0.27%
[4]
  Minimum Inhibitory Concentration (MIC) to inhibit 90% growth, S. aureus: 0.09%
[5]
  Minimum Inhibitory Concentration (MIC) to inhibit 90% growth, P. aeruginosa: 0.90%
